Results: patent publication US20250353891A1 (MEDIMMUNE LIMITED, priority 2022, published 2025)
Starred links: 1 amine or outer side, 2 acyl side, 3 side chain; linkers in the order of their positions; H or OH if unused. Non-standard residues stand in square brackets, D forms with d. Residues, ends and D or L forms follow the SMILES beside them. Groups on a side chain read outwards from the residue. *: point of attachment. Trp(5-Br) = N[C@@H](Cc1c[nH]c2ccc(Br)cc12)C(=O)O; Trp(1-Me) = Cn1cc(C[C@H](N)C(=O)O)c2ccccc21; Bip = N[C@@H](Cc1ccc(-c2ccccc2)cc1)C(=O)O; C18 diacid = O=C(O)CCCCCCCCCCCCCCCCC(=O)*; γGlu = O=C(O)[C@H](CCC(=O)[*:2])N[*:1]; αMeF = C[C@](N)(Cc1ccccc1)C(=O)O; AEEA = NCCOCCOCC(=O)O; Aib = CC(C)(N)C(=O)O

How the values were obtained:
[1] = molecular target: human glucagon receptor (hGCGR) (Homo sapiens, UniProt P47871); assay: cAMP production (HTRF) in CHO cells expressing hGCGR; assay type: cell-based; parameters: expressed in transfected cells; conditions: Table 6, peptides modified at position 17; cAMP in CHO hGCGR cells; geometric mean; read-out: hGluc-R EC50
Method in brief: (§1)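 Cells were resuspended in assay buffer at batch-optimized density, typically 1×10^5 cells/mL for hGLP-1R and 2×10^5 cells/mL for hGCGR. After 30 min incubation at room temperature with compound, cAMP was measured by two-step HTRF. EC50 values came from 4-parameter logistic fits of % Delta F.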

[2] = molecular target: human GLP-1 receptor (hGLP-1R) (Homo sapiens, UniProt P43220); assay: cAMP production (HTRF) in CHO cells expressing hGLP-1R; assay type: cell-based; parameters: expressed in transfected cells; conditions: for EC50: Table 6, peptides modified at position 17, cAMP in CHO hGLP-1R cells, geometric mean, read-out: hGLP-1R EC50; for % Relative Potency Ratio: Table 6, % GLP-1R activity relative to GLP-1 / % GlucR activity relative to glucagon
Method in brief: as §1

Chain of human glucagon receptor (hGCGR) (P47871 26-477): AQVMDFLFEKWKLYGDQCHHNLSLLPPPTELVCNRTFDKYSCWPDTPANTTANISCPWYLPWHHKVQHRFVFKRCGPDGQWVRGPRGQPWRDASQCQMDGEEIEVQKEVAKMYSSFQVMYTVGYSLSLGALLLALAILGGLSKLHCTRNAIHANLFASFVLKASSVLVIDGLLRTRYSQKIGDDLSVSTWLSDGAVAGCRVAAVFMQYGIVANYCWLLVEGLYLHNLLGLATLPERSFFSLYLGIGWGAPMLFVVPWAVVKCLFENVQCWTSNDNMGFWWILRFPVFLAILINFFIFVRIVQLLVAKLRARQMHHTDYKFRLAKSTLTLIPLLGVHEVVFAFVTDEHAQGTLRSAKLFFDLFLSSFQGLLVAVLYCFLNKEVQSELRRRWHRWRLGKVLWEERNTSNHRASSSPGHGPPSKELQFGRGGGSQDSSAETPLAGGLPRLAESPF
Chain of human GLP-1 receptor (hGLP-1R) (P43220 24-463): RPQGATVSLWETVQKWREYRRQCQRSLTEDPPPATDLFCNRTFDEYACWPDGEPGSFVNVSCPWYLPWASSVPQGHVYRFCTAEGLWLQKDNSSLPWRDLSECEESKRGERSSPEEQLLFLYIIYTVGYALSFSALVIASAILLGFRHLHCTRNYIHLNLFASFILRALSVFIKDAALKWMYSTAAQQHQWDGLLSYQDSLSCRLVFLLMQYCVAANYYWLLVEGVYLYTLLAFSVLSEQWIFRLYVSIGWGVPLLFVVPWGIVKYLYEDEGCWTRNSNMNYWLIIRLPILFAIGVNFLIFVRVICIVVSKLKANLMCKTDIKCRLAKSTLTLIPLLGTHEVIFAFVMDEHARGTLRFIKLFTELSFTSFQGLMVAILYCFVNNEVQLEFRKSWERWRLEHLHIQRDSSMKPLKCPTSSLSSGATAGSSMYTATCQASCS

SMILES | EC50 [1] [nM] | EC50 [2] [nM] | % Relative Potency Ratio [2]
CC(C)C[C@H](NC(=O)[C@H](Cc1c[nH]c2ccccc12)NC(=O)[C@H](CCCNC(=N)N)NC(=O)[C@@H](NC(=O)[C@H](Cc1ccccc1)NC(=O)[C@H](CC(=O)O)NC(=O)[C@H](CCC(N)=O)NC(=O)[C@H](C)NC(=O)[C@H](CCCNC(=N)N)NC(=O)[C@H](CCCCNC(=O)COCCOCCNC(=O)COCCOCCNC(=O)CC[C@H](NC(=O)CC[C@H](NC(=O)CCCCCCCCCCCCCCCCC(=O)O)C(=O)O)C(=O)O)NC(=O)[C@H](CO)NC(=O)[C@H](CC(=O)O)NC(=O)[C@H](CC(C)C)NC(=O)[C@](C)(Cc1ccccc1)NC(=O)[C@H](CCCCN)NC(=O)[C@H](CO)NC(=O)[C@@H](NC(=O)[C@H](CC(=O)O)NC(=O)[C@H](CO)NC(=O)[C@@H](NC(=O)[C@H](Cc1ccccc1)NC(=O)[C@@H](NC(=O)CNC(=O)[C@H](CCC(N)=O)NC(=O)C(C)(C)NC(=O)[C@@H](N)Cc1c[nH]cn1)[C@@H](C)O)[C@@H](C)O)C(C)C)C(C)C)C(=O)N[C@@H](CCC(=O)O)C(=O)N[C@@H](C)C(=O)NC(C)(C)C(=O)NCC(N)=O [Peptide 430] (H-H[Aib]QGTFTSDVSK[αMeF]LDSK([AEEA-AEEA-γGlu-γGlu-C18 diacid])RAQDFVRWLEA[Aib]G-NH2; N-terminus assumed) | 0.16 | 0.0244 | 13.0
CC(C)C[C@H](NC(=O)[C@H](Cc1c[nH]c2ccccc12)NC(=O)[C@H](C)NC(=O)[C@@H](NC(=O)[C@H](Cc1ccccc1)NC(=O)[C@H](CC(=O)O)NC(=O)[C@H](CCC(N)=O)NC(=O)[C@H](C)NC(=O)[C@H](CCCNC(=N)N)NC(=O)[C@H](CCCCNC(=O)COCCOCCNC(=O)COCCOCCNC(=O)CC[C@H](NC(=O)CC[C@H](NC(=O)CCCCCCCCCCCCCCCCC(=O)O)C(=O)O)C(=O)O)NC(=O)[C@@H](NC(=O)[C@H](CC(=O)O)NC(=O)[C@H](CC(C)C)NC(=O)[C@](C)(Cc1ccccc1)NC(=O)[C@H](CCCCN)NC(=O)[C@H](CO)NC(=O)[C@@H](NC(=O)[C@H](CC(=O)O)NC(=O)[C@H](CO)NC(=O)[C@@H](NC(=O)[C@H](Cc1ccccc1)NC(=O)[C@@H](NC(=O)CNC(=O)[C@H](CCC(N)=O)NC(=O)C(C)(C)NC(=O)[C@@H](N)Cc1c[nH]cn1)[C@@H](C)O)[C@@H](C)O)C(C)C)[C@@H](C)O)C(C)C)C(=O)N[C@@H](CCC(=O)O)C(=O)N[C@@H](C)C(=O)NC(C)(C)C(=O)NCC(N)=O [Peptide 431] (H-H[Aib]QGTFTSDVSK[αMeF]LDTK([AEEA-AEEA-γGlu-γGlu-C18 diacid])RAQDFVAWLEA[Aib]G-NH2; N-terminus assumed) | 0.194 | 0.0446 | 8.6
CC(C)C[C@H](NC(=O)[C@H](Cc1ccc(-c2ccccc2)cc1)NC(=O)[C@H](CCCNC(=N)N)NC(=O)[C@@H](NC(=O)[C@H](Cc1ccccc1)NC(=O)[C@H](CC(=O)O)NC(=O)[C@H](CCC(N)=O)NC(=O)[C@H](C)NC(=O)[C@H](CCCNC(=N)N)NC(=O)[C@H](CCCCNC(=O)COCCOCCNC(=O)COCCOCCNC(=O)CC[C@H](NC(=O)CCCCCCCCCCCCCCCCC(=O)O)C(=O)O)NC(=O)[C@H](CO)NC(=O)[C@H](CC(=O)O)NC(=O)[C@H](CC(C)C)NC(=O)[C@](C)(Cc1ccccc1)NC(=O)[C@H](CCCCN)NC(=O)[C@H](CO)NC(=O)[C@@H](NC(=O)[C@H](CC(=O)O)NC(=O)[C@H](CO)NC(=O)[C@@H](NC(=O)[C@H](Cc1ccccc1)NC(=O)[C@@H](NC(=O)CNC(=O)[C@H](CCC(N)=O)NC(=O)C(C)(C)NC(=O)[C@@H](N)Cc1c[nH]cn1)[C@@H](C)O)[C@@H](C)O)C(C)C)C(C)C)C(=O)N[C@@H](CC(C)C)C(=O)NC(C)(C)C(=O)N[C@@H](CCC(=O)O)C(=O)O [Peptide 432] (H-H[Aib]QGTFTSDVSK[αMeF]LDSK([AEEA-AEEA-γGlu-C18 diacid])RAQDFVR[Bip]LL[Aib]E-OH) | 1.16 | 1.38 | 1.7
CC(C)C[C@H](NC(=O)[C@H](Cc1cn(C)c2ccccc12)NC(=O)[C@H](CCCNC(=N)N)NC(=O)[C@@H](NC(=O)[C@H](Cc1ccccc1)NC(=O)[C@H](CC(=O)O)NC(=O)[C@H](CCC(N)=O)NC(=O)[C@H](C)NC(=O)[C@H](CCCNC(=N)N)NC(=O)[C@H](CCCCNC(=O)COCCOCCNC(=O)COCCOCCNC(=O)CC[C@H](NC(=O)CCCCCCCCCCCCCCCCC(=O)O)C(=O)O)NC(=O)[C@H](CO)NC(=O)[C@H](CC(=O)O)NC(=O)[C@H](CC(C)C)NC(=O)[C@](C)(Cc1ccccc1)NC(=O)[C@H](CCCCN)NC(=O)[C@H](CO)NC(=O)[C@@H](NC(=O)[C@H](CC(=O)O)NC(=O)[C@H](CO)NC(=O)[C@@H](NC(=O)[C@H](Cc1ccccc1)NC(=O)[C@@H](NC(=O)CNC(=O)[C@H](CCC(N)=O)NC(=O)C(C)(C)NC(=O)[C@@H](N)Cc1c[nH]cn1)[C@@H](C)O)[C@@H](C)O)C(C)C)C(C)C)C(=O)N[C@@H](CC(C)C)C(=O)NC(C)(C)C(=O)N[C@@H](CCC(=O)O)C(=O)O [Peptide 433] (H-H[Aib]QGTFTSDVSK[αMeF]LDSK([AEEA-AEEA-γGlu-C18 diacid])RAQDFVR[Trp(1-Me)]LL[Aib]E-OH; N-terminus assumed) | 10.5 | 4.46 | 4.6
CC(C)C[C@H](NC(=O)[C@H](Cc1c[nH]c2ccc(Br)cc12)NC(=O)[C@H](CCCNC(=N)N)NC(=O)[C@@H](NC(=O)[C@H](Cc1ccccc1)NC(=O)[C@H](CC(=O)O)NC(=O)[C@H](CCC(N)=O)NC(=O)[C@H](C)NC(=O)[C@H](CCCNC(=N)N)NC(=O)[C@H](CCCCNC(=O)COCCOCCNC(=O)COCCOCCNC(=O)CC[C@H](NC(=O)CCCCCCCCCCCCCCCCC(=O)O)C(=O)O)NC(=O)[C@H](CO)NC(=O)[C@H](CC(=O)O)NC(=O)[C@H](CC(C)C)NC(=O)[C@](C)(Cc1ccccc1)NC(=O)[C@H](CCCCN)NC(=O)[C@H](CO)NC(=O)[C@@H](NC(=O)[C@H](CC(=O)O)NC(=O)[C@H](CO)NC(=O)[C@@H](NC(=O)[C@H](Cc1ccccc1)NC(=O)[C@@H](NC(=O)CNC(=O)[C@H](CCC(N)=O)NC(=O)C(C)(C)NC(=O)[C@@H](N)Cc1c[nH]cn1)[C@@H](C)O)[C@@H](C)O)C(C)C)C(C)C)C(=O)N[C@@H](CC(C)C)C(=O)NC(C)(C)C(=O)N[C@@H](CCC(=O)O)C(=O)O [Peptide 434] (H-H[Aib]QGTFTSDVSK[αMeF]LDSK([AEEA-AEEA-γGlu-C18 diacid])RAQDFVR[Trp(5-Br)]LL[Aib]E-OH; N-terminus assumed) | 0.294 | 0.153 | 3.8
CC(C)C[C@H](NC(=O)[C@H](CC(C)C)NC(=O)C(C)(C)NC(=O)[C@H](CCC(N)=O)NC(=O)[C@@H](NC(=O)[C@H](Cc1ccccc1)NC(=O)[C@H](CC(=O)O)NC(=O)[C@H](CCCNC(=N)N)NC(=O)[C@H](C)NC(=O)[C@H](CCCNC(=N)N)NC(=O)[C@H](CCCCNC(=O)COCCOCCNC(=O)COCCOCCNC(=O)CC[C@H](NC(=O)CCCCCCCCCCCCCCCCC(=O)O)C(=O)O)NC(=O)[C@@H](NC(=O)[C@H](CC(=O)O)NC(=O)[C@H](CC(C)C)NC(=O)[C@](C)(Cc1ccccc1)NC(=O)[C@H](CCCCN)NC(=O)[C@H](CO)NC(=O)[C@@H](NC(=O)[C@H](CC(=O)O)NC(=O)[C@H](CO)NC(=O)[C@@H](NC(=O)[C@H](Cc1ccccc1)NC(=O)[C@@H](NC(=O)CNC(=O)[C@H](CCC(N)=O)NC(=O)C(C)(C)NC(=O)[C@@H](N)Cc1c[nH]cn1)[C@@H](C)O)[C@@H](C)O)C(C)C)[C@@H](C)O)C(C)C)C(=O)N[C@@H](CCC(=O)O)C(=O)NC(C)(C)C(=O)NCC(=O)O [Peptide 435] (H-H[Aib]QGTFTSDVSK[αMeF]LDTK([AEEA-AEEA-γGlu-C18 diacid])RARDFVQ[Aib]LLE[Aib]G-OH; N-terminus assumed) | 0.24 | 0.0227 | 21.0
CC(C)C[C@H](NC(=O)[C@H](Cc1c[nH]c2ccccc12)NC(=O)[C@H](CCCNC(=N)N)NC(=O)[C@@H](NC(=O)[C@H](Cc1ccccc1)NC(=O)[C@H](CC(=O)O)NC(=O)[C@H](CCC(N)=O)NC(=O)[C@H](C)NC(=O)[C@H](CCCNC(=N)N)NC(=O)[C@H](CCCCNC(=O)COCCOCCNC(=O)COCCOCCNC(=O)CC[C@H](NC(=O)CCCCCCCCCCCCCCCCC(=O)O)C(=O)O)NC(=O)[C@H](CCCNC(=N)N)NC(=O)[C@H](CC(=O)O)NC(=O)[C@H](CC(C)C)NC(=O)[C@](C)(Cc1ccccc1)NC(=O)[C@H](CCCCN)NC(=O)[C@H](CO)NC(=O)[C@@H](NC(=O)[C@H](CC(=O)O)NC(=O)[C@H](CO)NC(=O)[C@@H](NC(=O)[C@H](Cc1ccccc1)NC(=O)[C@@H](NC(=O)CNC(=O)[C@H](CCC(N)=O)NC(=O)C(C)(C)NC(=O)[C@@H](N)Cc1c[nH]cn1)[C@@H](C)O)[C@@H](C)O)C(C)C)C(C)C)C(=O)N[C@H](C(=O)NC(C)(C)C(=O)N[C@@H](CCC(=O)O)C(N)=O)C(C)C [Peptide 436] (H-H[Aib]QGTFTSDVSK[αMeF]LDRK([AEEA-AEEA-γGlu-C18 diacid])RAQDFVRWLV[Aib]E-NH2; N-terminus assumed) | 0.0688 | 0.00743 | 18.3
